Measured values as given in patent US12221494B2, “Short synthetic peptides and their uses for treating retinal degenerative diseases and/or tissue injuries” (MacKay Memorial Hospital, priority 2019, dated 2025).

Legend:
survivin mRNA = assay: Real-time qPCR of survivin mRNA in C2C12 cells; type: cell-based, mouse; conditions: stimulated for 3 h
STAT3 = assay: Western blot of STAT3 phosphorylation in C2C12 cells; type: cell-based, mouse; conditions: C2C12 myoblast cells, 5 to 20 min after stimulation
Description: Cell lysis, fractionation, and SDS-PAGE were conducted in accordance with procedures described previously (Yang Y C et al., BMC Cancer 2007; 7:216). Antibodies used in this study were for Phospho-Stat3 and STAT3 (1:1000-fold dilution). Proteins of interest were detected using the appropriate IgG-HRP secondary antibody (Santa Cruz Biotechnology) and ECL reagent (Amersham Biosciences).

TNF-α mRNA = assay: Hyperosmotic stress-induced TNF-α gene expression in rabbit corneal epithelial cells (qPCR); type: cell-based; conditions: 20 μM peptide 6 h, then hyperosmotic medium (463 mOsM) 3 h, solvent 12.8-fold
Description: Total RNA was extracted from cells using TRIzol (Invitrogen). Synthesis of cDNA was performed with 1 μg of total RNA at 50° C. for 50 min using oligo(dT) primers and reverse transcriptase (Superscript III; Invitrogen). Briefly, quantification of cDNA was performed in the LightCycler (Roche, Mannheim, Germany) using the DNA Master SYBR Green I kit (Roche) with the following cycling conditions: initial denaturation at 95° C. for 10 min, followed by 40 cycles at 95° C. for 10 s, 60° C. for 10 s, and 72° C. for 10 s and a 5-min terminal incubation at 72° C. The data were calculated with AACt. The expression was then normalized against the expression of glyceraldehyde-3-phosphate dehydrogenase (GAPDH). The PCR primers were mouse Survivin sense, 5′-[…]-3′ (SEQ ID NO: 27), anti-sense, 5′-[…]-3′ (SEQ ID NO: 28) (accession number: NM_001012273.1; PCR product: 136 bp); mouse GAPDH sense, 5′-[…]-3′ (SEQ ID NO: 29), anti-sense, 5′-[…]-3′ (SEQ ID NO: 30) (NM_001289726.1; 149 bp). For analysis rabbit inflammatory gene expression, The PCR primers were rabbit TNF-αsense, 5′-[…]-3′ (SEQ ID NO: 31), anti-sense, 5′-[…]-3′ (SEQ ID NO: 32) (accession number: NM 001082263.1); rabbit IL-1βsense, 5′-[…]-3′(SEQ ID NO: 33), anti-sense, 5′-[…]-3′ (SEQ ID NO: 34) (NM 001082201.1); rabbit GAPDH sense, 5′-[…]-3′ (SEQ ID NO: 35), anti-sense, 5′-[…]-3′ (SEQ ID NO: 36) (accession number:NM 001082253.1). The cycle threshold (Ct) values of the PCR product and a GAPDH (Glyceraldehyde 3-phosphate dehydrogenase) control mRNA were used to calculate relative quantities of mRNA.
Limbal stem epithelial cells (LSEC) were isolated from 6-month-old New Zealand white rabbits and continuously cultivated for 14 days byDMEM/F-12basalmedium based cell-suspension culture to achieve corneal-liked epithelial cell differentiation as previously described (Ho et al., Stem Cells. 2013; 31:1775). […] After 3 h, quantitative real-time PCR was used to estimate HOP-induced Tumor necrosis factor (TNF)-α and nterleukin-1 beta (IL-1β) expressions. […]

[1] = tested on: STZ-induced diabetic mice; assay: GFAP immunofluorescence staining of retina of STZ-induced diabetic mice; type: in vivo, mouse; conditions: eye drop, 14 days after STZ injection, vehicle/STZ 24.3±2.7
Description: Deparaffinized retinal sections were blocked with 10% goat serum and 5% bovine serum albumin (BSA) in PBS containing 0.5% TritonX-100 (PBST) for 20 min at room temperature for blocking nonspecific staining. Staining was performed using primary antibodies against glial fibrillary acidic protein (GFAP) (1:100 dilution) or Iba-1 (1:100 dilution) at 37° C. for 3 h. The slides were subsequently incubated with the appropriate fluorescent-labeled secondary antibodies (1:500 dilution) at 37° C. for 1 h and then counterstained with Hoechst 33258 for 6 min. The slides were then rinsed with PBST three times, mounted with FluorSave™ reagent (Calbiochem) and viewed with an epifluorescence microscope (Zeiss Axioplan 2 imaging; Zeiss, Oberkochen, Germany) Three sections per eye were averaged and the mean of six eyes was recorded as the representative value for each group.
Diabetic mice were generated by intraperitoneal injection of streptozotocin (STZ; 200 mg/kg body weight) at day 1 and day 3. STZ was freshly prepared in 0.1 M citrate buffer (pH 4.5). After injection, mice were supplied with 10% sucrose overnight to prevent sudden hypoglycaemic shock. […] Vascular lesions in the retina was scored in all four retinal quadrants of flat mounts by an epifluorescence microscopy at 200×. […]

NH2-(D-Ser)-Leu-Gly-Ala-Glu-Gln-COOH (SLGAEQ; HELM PEPTIDE1{[dS].L.G.A.E.Q}$$$$V2.0; SMILES CC(C)C[C@H](NC(=O)[C@H](N)CO)C(=O)NCC(=O)N[C@@H](C)C(=O)N[C@@H](CCC(=O)O)C(=O)N[C@@H](CCC(N)=O)C(=O)O) [6-mer dS]
level of survivin mRNA compared to solvent-treated cells (survivin mRNA): 2.6 fold
STAT3 phosphorylation (immunoblot) (STAT3): led to STAT3 phosphorylation
mRNA expression of TNF-α, in words (TNF-α mRNA): apparently repressed the mRNA expression of TNF-α and IL-1β
GFAP-positive astrocytes [1]: 11.0±1.4 numbers/400× field
